The text below walks through data of patent US6737407B1, “Treatment of obesity” (Metabolic Pharmaceuticals, Ltd., priority 1997, dated 2004).

Where no end group is shown, it is not given here.

The subject of assay [1] is acetyl-CoA carboxylase. As to the kind of experiment: Acetyl-CoA carboxylase assay in isolated adipocytes and hepatocytes. The class given is cell-based, rat. As to the method:
Acetyl-CoA carboxylase catalyzes the critical step in fatty acid synthesis. The acetyl-CoA carboxylase activities of both isolated adipocytes and hepatocytes in the presence of hGH 177-191 peptide or analogues were measured for the evaluation of the anti-lipogenic effect of the peptides. The acetyl-CoA carboxylase activity was determined by the [C^14]-bicarbonate fixation reaction—the rate of incorporation of acetyl-CoA dependent H[C^14]O3 into [C^14]-malonyl-CoA.
Adipocytes were prepared with the method described in the HSL assay. Hepatocytes were prepared from the livers of male Wistar rats by collagenase digestion. The liver was finely-cut with scissors and transferred to a 250 ml Erlenmeyer flask containing 30 ml of digestion medium. The digestion medium contained microbial collagenase (Type IV) at a concentration of 30 mg/ml in calcium-free Krebs-Ringer phosphate buffer (pH 7.4) and glucose (5 mM). […]
The isolated cells were first preincubated at 37° C. for 30 minutes in a mixture containing 50 mM Tris-HCl buffer (pH 7.5), 10 mM potassium citrate, 10 mM MgCl2, 1 mM dithiothreitol (DTT), and BSA (0.8 mg/ml). […] The [C^14] radioactivity was measured with a liquid scintillation counter. […] Specific activity of the enzyme was expressed as mU/g cell dry weight, where 1 U of acetyl-CoA carboxylase was defined as that amount which catalyzed the carboxylation of 1 μmole acetyl-CoA per minute.

Assay [2] relates to C57BL/6J (ob/ob) mice. The experiment in a line: Chronic 18-day treatment of obese mice with hGH 177-191: body weight gain, food consumption, adipose tissue weight. The class given is in vivo, mouse. As to conditions: for Initial body wt.: treated group, before 18-day daily i.p. 200 μg/kg. As to the method:
FIGS. 1A & 1B show the effect of hGH 177-191 peptide on cumulative body weight gains in male (1A) and female (1B) C57BL/6J (ob/ob) mice during the 18-day treatment period. Animals were given a daily intraperitoneal injection of 0.1 ml of either saline or hGH 177-191 (200 μg/kg body weight). Each points represents the mean±SEM of 6 animals.
FIGS. 2A & 2B show the average daily food consumption (g/mouse/day) of C57BL/6J (ob/ob) mice during an 18day treatment period with hGH 177-191. The treatment for the four groups of animals was as described in FIGS. 1A & 1B. Each point represents the mean±SEM of 6 animals.
The animals of the same age and same sex were randomly divided into two groups, housed 6 per cage and maintained on a normal 12-hr light/dark cycle at a constant room temperature of 25° C. in the animal house of the Department of Biochemistry and—Molecular Biology, Monash University, Clayton, Australia. Animals were fed ad libitum on pre-determined quantity of animal pellets (Clark King, Melboume, Australia) and allowed free access to water at all times. The animals were given a daily intraperitoneal (i.p) injection of 0.1 ml of either the synthetic peptide (200-500 μg/kg body weight) or equivalent volume of physiological saline (0.9% sodium chloride) for appropriate number of days. The i.p. injection was administered with a 30G×½″ (0.31×13 mm) needle on a 1-ml disposable tuberculin syringes, and the site of injection was the lower left quadrant of the abdomen of the animals. To study the effects of controlled-delivery of hGH 177-191 and analogues, slow-release peptide-pellets in a diameter of 3 mm were implanted intradermally in the abdominal region of Zucker rats under anaesthesia. The body weight and food intake were monitored for the periods of time as indicated.
Cumulative weight gain and food consumption were determined at 3-day intervals by the measurements of body weight and uneaten food remaining in the cages. The animals were placed in a covered chamber to minimise movement during the weighing procedure. The food consumption data were obtained by subtracting the amount of uneaten food remaining in the cages from the original provision.
The procedure for the isolation and measurement of intact epididymal fat pads was established in previous studies of epididymal growth of GH-deficient (lit/lit) mice. In the present study, white adipose tissues, either whole epididymal or parametrical fat pads, were excised with the identical techniques as previously described^22 from the mice immediately after sacrifice. The tissues were washed in cold physiological saline, blotted and weighed. For ex vivo lipogenic assays, the portions of adipose tissues without blood vessels were used.

The test system of assay [3] is adipose tissue of the C57BL/6J (ob/ob) mice. The experiment in a line: Ex vivo lipolysis in adipose tissue of treated ob/ob mice (glycerol release). Set-up: species or system mouse. As to conditions: both sexes, ob/ob mice after 18-day treatment. As to the method: FIGS. 6A & 6B depict the ex vivo effect on lipolysis in adipose tissue of the C57BL/6J (ob/ob) male mice (6A) and female mice (6B) after 18-days treatment with hGH 177-191. […] Values are mean±SEM of 12 determinations from 6 animals of each group. The differences between the hGH 177-191 treated and saline control groups were statistically significant.
Adipose tissues were removed from animals and sliced into segments of approximately 200 mg each. Then the tissues were pre-incubated in 25 ml vials containing 2 ml of Krebs-Ringerbicarbonate (KRB) buffer, 4% defatted BSA and 5.5 mM glucose under an atmosphere of carbogen (95%O2/ 5%CO2) at 37° C. for 1 hour. Tissues were then transferred to another vials with fresh medium and the incubation was initiated by adding hGH 177-191 peptide or analogues into the vials. The mixtures were then incubated at 37° C. for 90 minutes. After incubation, the tissues wee removed and aliquots (200 μl) of samples withdrawn from the medium were assayed for the contents of glycerol or free fatty acid (FFA) either by the enzyme assay (glycerol kinase) or calorimetric (copper-dye) spectrometry. The NADH or color produced was then monitored by the absorption at 340 nm and 610 nm, respectively.

Where [4] appears, read: female ob/ob mice, 18-day daily i.p. 200 μg/kg.
The mark [5] stands for this setting: male ob/ob mice, 18-day daily i.p. 200 μg/kg.

Turning to “LRIVQCRSVEGSCGF (cysteine pairing not given here) [Ref No. 9401]”, in assay [1], the “effect on acetyl CoA carboxylase (in words)” value is “inhibiting”. Further, the “average daily body weight gain lower than control” value in assay [2] (both male and female ob/ob mice) is listed as “approximately 27%”. In addition, in assay [2] (setting [4]), the “Adipose tissue (intact parametrical fat pads)” value is 3.26 g, the Body wt. gain is listed as 4.0 g, the Final body wt. amounted to 52.2 g and the “daily body weight gain” value was 0.22 ± 0.04 g/day. The “reduction of adipose tissue weight versus control” value in assay [2] (female ob/ob mice, parametrical fat pads) was at most 12%. This sequence had an Initial body wt. in assay [2] (female ob/ob mice) of 48.2 g. Moreover, in assay [2] (male and female ob/ob mice, 18-day daily i.p. 200 μg/kg), the “cumulative body weight gain versus control (in words)” value is reported as “clear reduction”. Besides, in assay [2] (male and female ob/ob mice, 18-day treatment), the “average daily food consumption versus control (in words)” value is listed as “no significant difference”. Besides, in assay [2] (setting [5]), the “Adipose tissue (intact epididymal fat pads)” value was 2.52 ± 0.25 g, the Body wt. gain is reported as 2.9 ± 0.6 g, the Final body wt. is 51.5 ± 2.3 g and the “daily body weight gain” value stood at 0.16 ± 0.04 g/day. The “reduction of adipose tissue weight versus control” value in assay [2] (male ob/ob mice, epididymal fat pads) is “up to 20%”. Besides, the Initial body wt. in assay [2] (male ob/ob mice) worked out at 48.6 ± 2.0 g. In assay [3], the “lipolytic activity in adipose tissues of treated animals (in words)” value is on record as “increase significantly”.
